Measured values from patent US7645449B2, “Sensitizing cells for apoptosis by selectively blocking cytokines” (priority 2003, dated 2010).

What was measured:
Assay type in all cases: cell-based, human
[1] = test system: RT112 bladder carcinoma cells; assay: MTS viability of RT112 cells: chemotherapy- and anti-CD95-induced apoptosis; details: RT112 without IL-4; 50 ng/ml camptothecin or 7 μM etoposide
Source text: Anticancer treatment using cytotoxic drugs mediates cell death by activating the intracellular apoptotic program. To determine whether IL-4 was able to inhibit apoptosis induced by chemotherapeutic drugs, bladder tumor cells (RT112) were pretreated for two days with different concentrations of IL-4 and subsequently exposed to camptothecin or etoposide.
Human LNCAP prostate cancer cell line and human MDA-MB-231 breast cancer cell line were obtained from the American Type Culture Collection (ATCC, Manassas, Va.). Human RT112 bladder carcinoma cell line was kindly provided by Dr. M. Cippitelli (Regina Elena Cancer Institute, Rome, Italy). Cells were grown in RPMI 1640 (Life Technologies Inc., Grand Island, N.Y.) containing 10% heat inactivated fetal bovine serum supplemented with L-Glutamine 2 mM and 100 units/ml Penicillin-Streptomycin. Cells were kept in 5% CO2 atmosphere and routinely passaged when 80-85% confluent. […] Camptothecin, cisplatin, daunorubicine, etoposide and vincristine were purchased from Sigma-Aldrich Inc. (Sain Louis, Mo.) and resuspended in DMSO (cisplatin, camptothecin and etoposide) or in H2O (daunorubicine and vincristine). Anti-CD95 agonistic antibody (clone CH11) was purchased from Upstate Biotechnology (Lake Placid, N.Y.). Monoclonal antibody anti-Bcl-XL (H5, mouse) was from Santa Cruz (Santa Cruz, Calif.), antibody anti-cFlip/FLAME-1 (NF6, mouse) was kindly provided by Dr. P.H. Krammer (German Cancer Reseach Center, Heidelberg, Germany). Antibody anti β-actin (goat) was purchased from Oncogene (Boston, Mass.):
Cell viability was determined using the CellTiter 96® AQueous One Solution Cell Proliferation Assay (Promega, Madison, Wis.), according to the manufacturer's instructions. The assay is based on reduction of 3-(4,5-dimethylthiazol-2-yl)-5-(3-carboxymethoxyphenyl)-2-(4-sulfophenyl)-2H-tetrazolium, inner salt (MTS) to a colored formazan product that is measured spectrophotometrically. Cells were seeded in 96-well tissue culture plates and incubated at 37° C. in a 5% CO2 incubator overnight. […] After two days cells were treated for 10 hours with chemotherapeutic drugs or anti-CD95, then 20 μl of MTS were added to each well. After 3 hours of incubation at 37° C. with the MTS reagent, the plates were read on a Multilabel Counter (Victor2, Wallac, Perkin-Ehmer Inc., Norwalk, Conn.) and dye absorbance was measured at 490 nm.
The percentage of apoptotic cells was derived from the percentage of viable cells that was directly calculated from the values of the MTS assay. The percentage of protection from apoptosis was determined as: % protection=100%−X
X was calculated with the formule: (C1−C2):100=(S1−S2):X where:
C1 is the viability of untreated control cells, C2 is the viability of control cells treated with the apoptotic stimulus, S1 and S2 are the viability of cells preincubated with cytoldnes or transduced with anti-apoptotic genes, untreated (S1) or treated (S2) with the apoptotic stimuli.
(A) Percentage of viable RT112 bladder carcinoma cells pre-treated for two days with increasing doses of IL-4 (5, 10, 20, 50 and 100 ng/ml) which were maintained also during incubation with chemotherapeutic drugs and exposed to 50 ng/ml camptothecin of 7 μM etoposide. […] Cell viability was determined after 24 hours using the MTS assay as described in Materials and Methods and the percentage of protection from cell death was calculated as described in Materials and Methods. The results shown are the mean ±s.d. of four independent experiments.
When the cytokine is removed by washing the percentage of protection is downmodulated.
(E) IL-4 prevents anti CD95-induced apoptosis. […] Successively, cells were incubated with 30 ng/ml anti-CD95 agonistic antibody in standard medium, Control cells (−) were stimulated with anti-CD95 in the absence of cytokine pre-treatment. The results shown are the mean ±s.d. of four independent experiments.

[2] = test system: primary neoplastic cells derived from all the histological variants of thyroid epithelial carcinomas (PTC, FTC, UTC); assay: Chemotherapy-induced cell death in freshly purified thyroid carcinoma cells compared with normal thyrocytes; details: cisplatin 300 ng/ml, doxorubicin 5 μM, taxol 5 μM, 6, 12 and 24 h
Method: Such resistance persisted for some days and was generally lost after eight to ten days of in vitro culture (results not shown).
(§1) Thyroid cell purification and culture. Thyroid tissues from normal, PTC, FTC and UTC were digested for 2 hours with collagenase (1.5 mg/ml) (Gibco BRL, Grand Island, N.Y.) and hyaluronidase (20 μg/ml) (Sigma Chemical Co., St. Louis, Mo.) in DMEM. Thyrocytes were purified from the digested tissues by hematopoietic cell depletion with anti-CD45-coupled beads (Dynal, Wirral Merseyside, U.K.) and 12 hours of flask adherence, which allowed removal of other cells. After additional 12 hours of culture, thyroid cells were allowed to grow in monolayer for the immunocytochemistry or detached with trypsin+EDTA following exposure to cytokines or chemotherapeutic agents for functional and protein analyses. Thyrocytes were cultured in standard DMEM with 10% heat-inactivated FBS (Hyclone Laboratories, Logan, UK) in the presence or absence of human recombinant IL-4 (20 ng/ml), IL-10 (40 ng/ml) or IFN-γ (1000 IU/ml) (uroclone, Paignton, UK) and cisplatin (300 ng/ml), doxorubicin (5 μM) and taxol (5 μM) (Sigma) or TRAIL (Alexis, San Diego, USA). For the IL-4 and IL-10 neutralization, thyroid cancer cells were pretreated, for 48 hours, with anti-human IL-4 and IL-10 neutralizing antibodies (1 μg/ml) (R&D systems, MN, USA).
Cell death quantitation. Apoptotic events of neoplastic thyrocytes were evaluated by DNA staining and flow cytometry analysis. Thyroid cell pellets were resuspended in hypotonic fluoroclrome solution containing propidium iodide (50 μg/ml), in 0.1% sodium citrate and 0.1% Triton X-100. The percentage of hypodiploid nuclei was evaluated as previously described. Alternatively, freshly purified thyrocytes were plated in 96-bottomed plates in triplicate at 15,000 cells/well and cultured. The number of viable cells was detected by CellTiter Aqueous Assay Kit (Promega Corporation, WI, USA) adding 20 μl of solution reagent directly to culture wells, incubating for 1 hours at 37° C. and recording absorbance at 490 nm.
FIG. 1. […]

[3] = test system: Bcl-xL and Bcl-2 in normal thyrocytes; assay: Immunoblot of Bcl-xL and Bcl-2 in normal thyrocytes cultured with cytokines; details: after 48 hours of culture; IL-4 20 ng/ml, IL-10 40 ng/ml, IFN-γ 1000 IU/ml
Method: as §1
Protein isolation and Western Blotting. Cell pellets were resuspended in ice-cold NP-40 lysis buffer (50 mM Tris-HCl, pH 7.5, 150 mM NaCl, 1 mM EGTA, 1% NP-40) containing 1 mM PMSF, leupeptin (1 μg/ml), pepstatin (1 μg/ml) and aprotirni (1 μg/ml). Each lysate (30 μg) was fractioned on 12% SDS-polyacrylamide gels and blotted to nitrocellulose (Hybond, Amersham, Little Chalfont Buckinghamshire England, UK). Membrane was blocked for 1 h with nonfat dry milk in TBS containing 0.05% Tween 20 and successively incubated for 2 h with Abs specific to actin (Ab-1, mouse IgM, Calbiochem, Darmstadt, Germany), Bcl-2 (124, mouse IgG1, Upstate Biotechnology Inc.), Bcl-xL (H-5, mouse IgGl, Santa Cniz Biotechnology), IL-4 (3007.11, mouse IgG1, R&D Systems, Inc., Minneapolis, USA), IL-10 (23738.111, mouse IgG2b, R&D Systems), IFN-γ (25718.111, mouse IgG2a, R&D Systems). […]

normal thyrocytes = assay: Cytokine protection of normal thyrocytes from chemotherapy-induced apoptosis; details: 48 h pre-treatment, rhIL-4 20 ng/ml or rhIL-10 40 ng/ml, then drugs for 12 h
Method: Thyroid cell purification and culture. Thyroid tissues from normal, PTC, FTC and UTC were digested for 2 hours with collagenase (1.5 mg/ml) (Gibco BRL, Grand Island, N.Y.) and hyaluronidase (20 μg/ml) (Sigma Chemical Co., St. Louis, Mo.) in DMEM. Thyrocytes were purified from the digested tissues by hematopoietic cell depletion with anti-CD45-coupled beads (Dynal, Wirral Merseyside, U.K.) and 12 hours of flask adherence, which allowed removal of other cells. After additional 12 hours of culture, thyroid cells were allowed to grow in monolayer for the immunocytochemistry or detached with trypsin+EDTA following exposure to cytokines or chemotherapeutic agents for functional and protein analyses. […]
Cell death quantitation. Apoptotic events of neoplastic thyrocytes were evaluated by DNA staining and flow cytometry analysis. […] The percentage of hypodiploid nuclei was evaluated as previously described. […] The number of viable cells was detected by CellTiter Aqueous Assay Kit (Promega Corporation, WI, USA) adding 20 μl of solution reagent directly to culture wells, incubating for 1 hours at 37° C. and recording absorbance at 490 nm. […]

**Q.** Which “tumor cells undergoing apoptosis in response to chemotherapeutic agents” value [1] does the source give for `CC[C@@]1(O)C(=O)OCc2c1cc1n(c2=O)Cc2cc3ccccc3nc2-1` [camptothecin, reference compound] here?
**A.** The value was about 60%.

**Q.** How did the “tumor cells undergoing apoptosis in response to chemotherapeutic agents” value [1] turn out when `COc1cc([C@@H]2c3cc4c(cc3[C@@H](O[C@@H]3O[C@@H]5CO[C@@H](C)O[C@H]5[C@H](O)[C@H]3O)[C@H]3COC(=O)[C@H]23)OCO4)cc(OC)c1O` [etoposide, reference compound] was run?
**A.** The value was about 60%.

**Q.** Which “sensitivity of primary neoplastic thyroid cells to chemotherapeutic drugs (viability/apoptosis)” value (from here on “sensitivity … (viability/apoptosis)”) [2] does the source give for `N.N.[Cl][Pt][Cl]` [cisplatin] here?
**A.** The value was “considerable resistance”.

**Q.** `CC(=O)O[C@H]1C(=O)[C@@]2(C)[C@H]([C@H](OC(=O)c3ccccc3)[C@]3(O)C[C@H](OC(=O)[C@H](O)[C@@H](NC(=O)c4ccccc4)c4ccccc4)C(C)=C1C3(C)C)[C@]1(OC(C)=O)CO[C@@H]1C[C@@H]2O` [taxol] was tested. Which “sensitivity … (viability/apoptosis)” value [2] did it give?
**A.** The value was “considerable resistance”.

**Q.** `COc1cccc2c1C(=O)c1c(O)c3c(c(O)c1C2=O)C[C@@](O)(C(=O)CO)C[C@@H]3O[C@H]1C[C@H](N)[C@H](O)[C@H](C)O1` [doxorubicin] was tested. Which “sensitivity … (viability/apoptosis)” value [2] did it give?
**A.** Its value is “considerable resistance”.

B1: IFN-γ: human recombinant IFN-γ (protein, UniProt P01579 24-161, looked up)
Interferon gamma: QDPYVKEAENLKKYFNAGHSDVADNGTLFLGILKNWKEESDRKIMQSQIVSFYFKLFKNFKDDQSIQKSVETIKEDMNVKFFNSNKKKRDDFEKLTNYSVTDLNVQRKAIHELIQVMAELSPAAKTGKRKRSQMLFRG
**Q.** Which “Bcl-xL and Bcl-2 expression in normal thyrocytes” value [3] does the source give for B1 here?
**A.** The value was “not effective”.

B2: IL-10: human recombinant IL-10 (protein, UniProt P22301 19-178, looked up)
Interleukin-10: SPGQGTQSENSCTHFPGNLPNMLRDLRDAFSRVKTFFQMKDQLDNLLLKESLLEDFKGYLGCQALSEMIQFYLEEVMPQAENQDPDIKAHVNSLGENLKTLRLRLRRCHRFLPCENKSKAVEQVKNAFNKLQEKGIYKAMSEFDIFINYIEAYMTMKIRN
**Q.** Which results are given for B2?
**A.** prevention of death of normal thyrocytes exposed to cisplatinum, doxorubicin and taxol (normal thyrocytes): drastically prevented death; Bcl-xL and Bcl-2 expression in normal thyrocytes [3]: upregulated
